Measurements reported in publication PMC6923382, “Small molecules that inhibit TNF signalling by stabilising an asymmetric form of the trimer” (Nature Communications, 2019).
Several values for one entry are separate records, joined by “and”; a condition that tells them apart may be missing. Equal entries are not always repeated.

Biological target: T1, mouse TNF (Mus musculus, UniProt P06804)
T1 construct: stabilise an asymmetrical form of the soluble TNF trimer
T1 sequence (P06804 80-235 limits assumed): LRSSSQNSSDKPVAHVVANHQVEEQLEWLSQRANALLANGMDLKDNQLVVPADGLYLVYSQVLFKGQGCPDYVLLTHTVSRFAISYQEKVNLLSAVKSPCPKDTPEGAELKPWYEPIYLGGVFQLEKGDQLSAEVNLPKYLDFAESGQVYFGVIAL
Test: Mouse TNF induced neutrophil recruitment in vivo
Conditions: Etanercept 30 mg/kg i.v.; mouse TNF; individual mice
Method: All in vivo studies were reviewed by an internal Ethical Review Body (ERB) and conducted in accordance with the Animals (Scientific Procedures) Act 1986, EU Directive 2010/63/EU. […] Anti-TNFα biologics, CDP571[21] (10 mg/kg) and etanercept (30 mg/kg), diluted in PBS, were dosed intravenously prior to human and mouse TNF challenge. Two hours after the TNF challenge, mice were sacrificed and the peritoneal cavity lavaged with 3 mL of FACS buffer. An aliquot (0.3 mL) of lavage fluid was used to assess the number CD45^+GR1^+ cells by flow cytometry. Briefly, the cells were treated with ACK lysis buffer, washed and suspended in FACS buffer prior to staining with FITC anti-mouse CD45 and PE anti-mouse GR1. Data are shown as mean ± standard error of the number of CD45^+GR-1^+ cells. Statistical significance (*p < 0.05, **p < 0.01, ****p < 0.0001) was determined using one-way ANOVA with Dunnett’s multiple comparison test.

Etanercept [reference compound]
CD45+ GR-1+ cells/mL in the peritoneal cavity: 6123.9 cells/mL and 7203.0 cells/mL and 3131.9 cells/mL and 6069.0 cells/mL and 1965.3 cells/mL
